Assay results from patent EP2951180B1, “2,6,7,8 SUBSTITUTED PURINES AS HDM2 INHIBITORS” (Merck Sharp & Dohme Corp., priority 2013, dated 2014).
Like-named read-outs stand apart in the source and are kept apart here.

Molecular target: T1, HDM2 (Homo sapiens, UniProt Q00987)
T1 construct: Thioredoxin (N); made in house; host or cells: E. coli strain BL21(DE3)Rosetta
Assay: HDM2 FRET assay (inhibition of binding of FITC labeled p53-pocket peptide to HDM2)
Conditions: for IC50: read-out: FRET IC50; for inhibition at 1 µM: read-out: % inh. at 1000 nM, at 1000 nM compound
Method in brief: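 Final: 0.5 nM His-HDM2, 3 nM FITC peptide, 0.25 nM Tb anti-His Ab; PBS, 0.01% BSA, 0.01% Tween-20; 0.1% DMSO.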

[1] = 0.5 nM HDM2 (residues 17 to 125), 3nM peptide, two hour incubation at room temperature

T1 sequence (Q00987 17-125): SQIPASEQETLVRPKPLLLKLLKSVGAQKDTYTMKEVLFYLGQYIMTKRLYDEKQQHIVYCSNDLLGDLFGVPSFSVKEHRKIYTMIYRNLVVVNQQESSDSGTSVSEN

Compound: C[C@@H](Nc1nc(-c2noc(=O)[nH]2)nc2nc(C3CCCCC3)n(C[C@H]3CC[C@H](C)CC3)c12)C1CCC1 [Example 21.39, 3-(6-{[(1R)-1-cyclobutylethyl]amino}-8-cyclohexyl-7-[(trans-4-methylcyclohexyl)methyl]-7H-purin-2-yl)-1,2,4-oxadiazol-5(4H)-one]
- IC50 (Table 21): 7.87 nM

Compound: Cc1cccc(-c2nc3nc(-c4nnn[nH]4)nc(N[C@H](C)C4CC4)c3n2Cc2ccc(C(F)(F)F)cc2)c1 [Example 12.26, N-[(1R)-1-cyclopropylethyl]-8-(3-methylphenyl)-2-(1H-tetrazol-5-yl)-7-[4-(trifluoromethyl)benzyl]-7H-purin-6-amine]
- IC50 [1]: 53 nM

Compound: C[C@@H](Nc1nc(-c2nnn(C)n2)nc2nc(N3CCOC[C@H]3c3ccccc3)n(C[C@H]3CC[C@H](C)CC3)c12)C1CCC1 [Example 12.11, N-[(1R)-1-cyclobutylethyl]-7-[(trans-4-methylcyclohexyl)methyl]-2-(2-methyl-2H-tetrazol-5-yl)-8-[(3R)-3-phenylmorpholin-4-yl]-7H-purin-6-amine]
- IC50 [1]: 32.5 nM

Compound: C[C@@H](Nc1nc(-c2noc(=O)[nH]2)nc2nc(N3CCOC[C@H]3c3ccccc3)n(C[C@H]3CC[C@H](C)CC3)c12)C(F)(F)F [Example 11.53, 3-(7-[(trans-4-methylcyclohexyl)methyl]-8-[(3R)-3-phenylmorpholin-4-yl]-6-{[(1R)-2,2,2-trifluoro-1-methylethyl]amino}-7H-purin-2-yl)-1,2,4-oxadiazol-5(4H)-one]
- IC50 (Table 11): 4.68 nM

Compound: CC[C@H](Nc1nc2nc(-c3noc(=O)[nH]3)nc(-c3cccc(Cl)c3)c2n1C[C@H]1CC[C@H](C)CC1)c1cccc(F)c1 [Example 16.64, 3-{6-(3-chlorophenyl)-8-{[(1S)-1-(3-fluorophenyl)propyl]amino}-7-[(trans-4-methylcyclohexyl)methyl]-7H-purin-2-yl}-1,2,4-oxadiazol-5(4H)-one]
- IC50 [1]: 3.16 nM

Compound: C[C@@H](Nc1nc(C(=O)O)nc2nc(N3CCc4ccccc4C3)n(Cc3ccc(C(F)(F)F)cc3)c12)C1CCC1 [Example 9.121, 6-{[(1R)-1-cyclobutylethyl]amino}-8-(3,4-dihydroisoquinolin-2(1H)-yl)-7-[4-(trifluoromethyl)benzyl]-7H-purine-2-carboxylic acid]
- IC50 (Table 9): 10.6 nM

Compound: Cc1cccc(-c2nc3nc(C(=O)O)nc(N4CCC[C@@H]4C4CCC4)c3n2Cc2ccc(C(F)(F)F)cc2)c1 [Example 7.8, 6-[(2R)-2-cyclobutylpyrrolidin-1-yl]-8-(3-methylphenyl)-7-[4-(trifluoromethyl)benzyl]-7H-purine-2-carboxylic acid]
- IC50 (Table 7): 188 nM

Compound: C[C@@H](Nc1nc(NC(C)(C)C(=O)O)nc2nc(N3CCOC[C@H]3c3ccccc3)n(C[C@H]3CC[C@H](C)CC3)c12)C1CCC1 [Example 13.5, N-(6-{[(1R)-1-cyclobutylethyl]amino}-7-[(trans-4-methylcyclohexyl)methyl]-8-[(3R)-3-phenylmorpholin-4-yl]-7H-purin-2-yl)-2-methylalanine]
- IC50 [1]: 260 nM

Compound: CC[C@@H](C)Nc1nc(C(=O)O)nc2nc(-c3cccc(C)c3)n(Cc3ccc(C(F)(F)F)cc3)c12 [Example 6.60, 8-(3-methylphenyl)-6-{[(1R)-1-methylpropyl]amino}-7-[4-(trifluoromethyl)benzyl]-7H-purine-2-carboxylic acid]
- IC50 (Table 6): 583 nM

Compound: C[C@@H](Nc1nc(-c2noc(=O)[nH]2)nc2nc(C(C)(O)C3CCOCC3)n(C[C@H]3CC[C@H](C)CC3)c12)C1CCC1 (stereo partly drawn) [Example 22.38, 3-(6-{[(1R)-1-cyclobutylethyl]amino}-8-[1-hydroxy-1-(tetrahydro-2H-pyran-4-yl)ethyl]-7-[(trans-4-methylcyclohexyl)methyl] -7H-purin-2-yl)-1,2,4-oxadiazol-5(4H)-one]
- IC50 (Table 22): 4.76 nM

Compound: C[C@H]1CC[C@H](Cn2c(N3CCOC[C@H]3c3ccccc3)nc3nc(-c4noc(=O)[nH]4)nc(-c4cc(Cl)ccc4F)c32)CC1 [Example 16.25, 3-{6-(5-chloro-2-fluorophenyl)-7-[(trans-4-methylcyclohexyl)methyl]-8-[(3R)-3-phenylmorpholin-4-yl]-7H-purin-2-yl} -1,2,4-oxadiazol-5(4H)-one]
- IC50 [1]: 1.63 nM

Compound: O=C(O)c1nc(NCC2CC2)c2c(n1)nc(-c1cccc(Cl)c1)n2Cc1ccc(Cl)cc1 [Example 6.12, 7-(4-chlorobenzyl)-8-(3-chlorophenyl)-6-[(cyclopropylmethyl)amino]-7H-purine-2-carboxylic acid]
- IC50 (Table 6): 4100 nM

Compound: Cc1cccc(-c2nc3nc(C(N)=O)nc(N[C@H](C)C4CC4)c3n2Cc2ccc(C(F)(F)F)cc2)c1 [Example 12.27, 6-{[(1R)-1-cyclopropylethyl]amino}-8-(3-methylphenyl)-7-[4-(trifluoromethyl)benzyl]-7H-purine-2-carboxamide]
- IC50 [1]: 2040 nM

Compound: CC(=O)N1CCN(c2nc3nc(C(N)=O)nc(N[C@H](C)C4CCC4)c3n2C[C@H]2CC[C@H](C)CC2)[C@H](c2ccccc2)C1 [Example 17.11, 8-[(2R)-4-acetyl-2-phenylpiperazin-1-yl]-6-{[(1R)-1-cyclobutylethyl]amino}-7-[(trans-4-methylcyclohexyl)methyl]-7H-purine-2-carboxamide]
- IC50 (Table 17.2): 6.33 nM

Compound: C[C@H]1CC[C@H](Cn2c(SC3CCCC3)nc3nc(-c4n[nH]c(=O)o4)nc(-c4cncc(Cl)c4)c32)CC1 [Example 19.4, 5-{6-(5-chloropyridin-3-yl)-8-(cyclopentylsulfanyl)-7-[(trans-4-methylcyclohexyl)methyl]-7H-purin-2-yl}-1,3,4-oxadiazol-2(3H)-one]
- IC50 (Table 19): 3.05 nM

Compound: C[C@H]1OCCN(c2nc3nc(-c4n[nH]c(=O)o4)nc(-c4cncc(Cl)c4)c3n2C[C@H]2CC[C@H](C)CC2)[C@@H]1c1ccccc1 [Example 16.133, 5-{6-(5-chloropyridin-3-yl)-7-[(trans-4-methylcyclohexyl)methyl]-8-[(2R,3R)-2-methyl-3-phenylmorpholin-4-yl]-7H -purin-2-yl}-1,3,4-oxadiazol-2(3H)-one]
- IC50 [1]: 0.569 nM

Compound: C[C@@H](Nc1nc(S(C)(=O)=O)nc2nc(N3CCCCC3c3ccccc3)n(C[C@H]3CC[C@H](C)CC3)c12)C1CCC1 (single isomer, unassigned) [Example 14.9]
- inhibition at 1 µM: 46%

Compound: C[C@H]1CC[C@H](Cn2c(N3CCOCC3)nc3nc(-c4n[nH]c(=O)o4)nc(-c4cccc(Cl)c4)c32)CC1 [Example 16.33, 5-{6-(3-chlorophenyl)-7-[(trans-4-methylcyclohexyl)methyl]-8-morpholin-4-yl-7H-purin-2-yl}-1,3,4-oxadiazol-2(3H)-one]
- IC50 [1]: 163 nM

Compound: C[C@H]1CC[C@H](Cn2c(N3CCOC[C@H]3c3ccccc3)nc3nc(-c4n[nH]c(=O)o4)nc(C4CCOCC4)c32)CC1 [Example 16.168, 5-{7-[(trans-4-methylcyclohexyl)methyl]-8-[(3R)-3-phenylmorpholin-4-yl]-6-(tetrahydro-2H-pyran-4-yl)-7H-purin-2-yl} -1,3,4-oxadiazol-2(3H)-one]
- IC50 [1]: 67.1 nM

Compound: C[C@@H](Nc1nc(C(=O)O)nc2nc(CN(C)C3CCCCC3)n(Cc3ccc(C(F)(F)F)cc3)c12)C1CCC1 [Example 10.14, (R)-6-((1-cyclobutylethyl)amino)-8-((cyclohexyl(methyl)amino)methyl)-7-(4-(trifluoromethyl)benzyl)-7H-purine-2-carboxylic acid]
- IC50 (Table 10): 4.53 nM

Compound: C[C@@H](Nc1nc(-c2noc(=O)[nH]2)nc2nc(C(F)(F)c3ccccc3)n(C[C@H]3CC[C@H](C)CC3)c12)C1CCC1 [Example 22.79, 3-(6-{[(1R)-1-cyclobutylethyl]amino}-8-[difluoro(phenyl)methyl]-7-[(trans-4-methylcyclohexyl)methyl]-7H-purin-2-yl)-1,2,4-oxadiazol-5(4H)-one]
- IC50 (Table 22): 3.36 nM

Compound: Cc1noc(C2CCCCN2c2nc3nc(-c4noc(=O)[nH]4)nc(N[C@H](C)C4CCC4)c3n2Cc2ccc(C(F)(F)F)cc2)n1 (stereo partly drawn) [Example 9.107, 3-(6-{[(1R)-1-cyclobutylethyl]amino}-8-[2-(3-methyl-1,2,4-oxadiazol-5-yl)piperidin-1-yl]-7-[4-(trifluoromethyl)benzyl]-7H-purin-2-yl)-1,2,4-oxadiazol-5(4H)-one]
- IC50 (Table 9): 5.18 nM

Compound: CC(C)c1ccnc(-c2nc3nc(CN)nc(N[C@H](C)C4CCC4)c3n2C[C@H]2CC[C@H](C)CC2)c1 [Example 12.4, 2-(aminomethyl)-N-[(1R)-1-cyclobutylethyl]-7-[(trans-4-methylcyclohexyl)methyl]-8-[4-(propan-2-yl)pyridin-2-yl]-7H-purine-6-amine]
- inhibition at 1 µM: 39%

Compound: CCC1=CCC(Cn2c(-c3cc(C(C)C)ccn3)nc3nc(C(=O)O)nc(N[C@H](C)C4CCC4)c32)CC1 (stereo partly drawn) [Example 18.24, 6-{[(1R)-1-cyclobutylethyl]amino}-7-[(4-ethylcyclohex-3-en-1-yl)methyl]-8-[4-(1-methylethyl)pyridin-2-yl]-7H-purine-2-carboxylic acid]
- IC50 (Table 18): 15.9 nM

Compound: Cc1cccc(-c2nc3nc(C(=O)O)nc(N[C@H](C)C4CCC4)c3n2Cc2ccc(Cl)cc2)c1 [Example 6.2, 7-(4-chlorobenzyl)-6-{[(1R)-1-cyclobutylethyl]amino}-8-(3-methylphenyl)-7H-purine-2-carboxylic acid]
- IC50 (Table 6): 13.9 nM

Compound: Cc1cccc(-c2nc3nc(C(=O)O)nc(N[C@H](CCCN(C)C)C4CCC4)c3n2Cc2ccc(C(F)(F)F)cc2)c1 [Example 7.11, 6-{[(1R)-1-cyclobutyl-4-(dimethylamino)butyl]amino}-8-(3-methylphenyl)-7-[4-(trifluoromethyl)benzyl]-7H-purine-2-carboxylic acid]
- IC50 (Table 7): 323 nM
